Measurements from patent publication US7592188B2, “Live cell biosensors” (The Scripps Research Institute, priority 2004, dated 2009).

Assay: Photophysical properties of dyes in various solvents (absorbance, emission, quantum yield)
Format: physicochemical
Design: ε × F / ε × Φ: unit not given here
Conditions: for Emission λmax / absorption λmax / Φ (quantum yield of fluorescence) / ε (molar extinction coefficient) / ε × Φ: reactive forms
Experimental: Analytical grade reagents were purchased from major suppliers. […] Emission and excitation spectra were obtained using a Spex Fluorolog 2 spectrofluorometer at 23° C. […] Demas et al., J. Phys. […] All operations with dyes were performed under dim light. Flasks containing dyes were wrapped with aluminum foil.

Compound	Emission λmax (solvent BuOH) [nm]	absorption λmax (solvent BuOH) [nm]	Φ (quantum yield of fluorescence) (solvent BuOH)	ε (molar extinction coefficient) (solvent BuOH)	ε × Φ (solvent BuOH)	Emission λmax (solvent H2O) [nm]	Emission λmax (solvent MeOH) [nm]	absorption λmax (solvent MeOH) [nm]	Φ (quantum yield of fluorescence) (solvent MeOH)	ε (molar extinction coefficient) (solvent MeOH)	ε × Φ (solvent MeOH)	quantum yield after reaction with β-mercaptoethanol relative to underivatized fluorophore	absorption λmax (solvent H2O) [nm]	Φ (quantum yield of fluorescence) (solvent H2O)	ε (molar extinction coefficient) (solvent H2O)	ε × Φ (solvent H2O)
O=C(CI)Nc1ccc2c(c1)S/C(=C/C=C/C=C1/C(=O)c3ccccc3S1(=O)=O)N2CCCS(=O)(=O)[O-].[Na+] [dye 2e, Sodium 3-[(2E)-6-[(Iodoacetyl)amino]-2-[(2E,4Z)-4-(1,1-dioxido-3-oxo-1-benzothien-2(3H)-ylidene)but-2-enylidene]-1,3-benzothiazol-3(2H)-yl]propane-1-sulfonate]	636	618	0.06	(160000)	9600	618	628	610	0.034	(140000)	3000	–	–	–	–	–
O=C(CSCCO)Nc1ccc2c(c1)S\C(=C/C=C/C=C1/C(=O)c3ccccc3S1(=O)=O)N2CCCS(=O)(=O)[O-].[Na+] [dye 2g, Sodium 3-[(2Z)-6-({[(2-Hydroxyethyl)thio]acetyl}amino)-2-[(2E,4Z)-4-(1,1-dioxido-3-oxo-1-benzothien-2(3H)-ylidene)but-2-enylidene]-1,3-benzothiazol-3(2H)-yl]propane-1-sulfonate]	–	–	–	–	–	–	629	610	0.054	(138000)	8000	returned the quantum yield of S—SO to that of the underivatized fluorophore	–	–	–	–
CC1(C)/C(=C/C=C/C=C2/C(=O)c3ccccc3S2(=O)=O)N(CCCS(=O)(=O)[O-])c2ccc(NC(=O)CI)cc21.[Na+] [dye 4e, Sodium 3-{(2Z)-5-[(Iodoacetyl)amino]-2-[(2E,4Z)-4-(1,1-dioxido-3-oxo-1-benzothien-2(3H)-ylidene)but-2-enylidene]-3,3-dimethyl-2,3-dihydro-1H-indol-1-yl}propane-1-sulfonate]	639	607	0.06	(150000)	9000	630	634	601	0.01	(138000)	1400	–	599	0.004	(143000)	600
CN(C(=O)COCC(=O)ON1C(=O)CCC1=O)c1ccc2c(c1)C(C)(C)/C(=C/C=C/C=C1/C(=O)c3ccccc3S1(=O)=O)N2CCCS(=O)(=O)[O-].[Na+] [dye 4f, Sodium 3-{(2Z)-5-[({2-[(2,5-Dioxopyrrolidin-1-yl)oxy]-2-oxoethoxy}acetyl)methylamino]-2-[(2E,4Z)-4-(1,1-dioxido-3-oxo-1-benzothien-2(3H)-ylidene)but-2-enylidene]-3,3-dimethyl-2,3-dihydro-1H-indol-1-yl}propane-1-sulfonate]	623	590	0.19	(134000)	26000	616	620	586	0.05	(140000)	7000	–	594	0.01	(150000)	1500
CC1(C)\C(=C/C=C/C=C2/C(=O)c3ccccc3S2(=O)=O)N(CCCS(=O)(=O)[O-])c2ccc(NC(=O)CSCCO)cc21.[Na+] [dye 4g, Sodium 3-{(2E)-5-({[(2-Hydroxyethyl)thio]acetyl}amino)-2-[(2E,4Z)-4-(1,1-dioxido-3-oxo-1-benzothien-2(3H)-ylidene)but-2-enylidene]-3,3-dimethyl-2,3-dihydro-2,3-dihydro-1H-indol-1-yl}propane-1-sulfonate]	628	609	0.12	(142000)	17000	620	621	601	0.04	(140000)	6000	half that of the unaltered fluorophore	600	0.02	(140000)	3000
Sodium 3-[(2E)-6-[({2-[(2,5-Dioxopyrrolidin-1-yl)oxy]-2-oxoethoxy}-acetyl)methylaminol]-2-[(2E,4Z)-4-(1,1-dioxido-3-oxo-1-benzothien-2(3H)-ylidene)but-2-enylidene]-1,3-benzothiazol-3(2H)-yl]propane-1-sulfonate [dye 2f]	626	608	0.12	(134000)	–	618	621	603	0.06	(142000)	–	–	–	–	–	–
